As a reminder, the MIC is the lowest concentration found to suppress growth. Higher therefore signals a need for much substance. A word on the inhibition: it is how much of the control response was suppressed.

Structures are written as SMILES. Converted amounts (≈) assume the structure as drawn.

Results on 3 compounds are retold here after ChEMBL document CHEMBL1142691, “Solid-phase total synthesis of kahalalide A and related analogues” (2005).

Test [1] has as its system Mycobacterium tuberculosis. The test can be described thus: Minimum inhibitory concentration against Mycobacterium tuberculosis. It is filed as functional.
The subject of test [2] is Mycobacterium tuberculosis. The test can be described thus: Concentration to inhibit of the growth of Mycobacterium tuberculosis at 12.5 ug/ml. It is filed as functional.

`CCC(C)C(=O)N[C@H](Cc1ccccc1)C(=O)N[C@@H]1C(=O)N[C@H](CC(C)C)C(=O)N[C@H](Cc2ccccc2)C(=O)N[C@H](CC(C)C)C(=O)N[C@@H]([C@@H](C)O)C(=O)N[C@@H](CO)C(=O)O[C@@H]1C` (some centres undefined) registered an MIC in test [1] of 64 µg/mL (≈ 71.6 µM). This compound returned an inhibition at 12.5 µg/mL in test [2] of 83%.
Compound `CCCCCC(=O)N[C@H](Cc1ccccc1)C(=O)N[C@@H]1C(=O)N[C@H](CC(C)C)C(=O)N[C@H](Cc2ccccc2)C(=O)N[C@H](CC(C)C)C(=O)N[C@@H]([C@@H](C)O)C(=O)N[C@@H](CO)C(=O)O[C@@H]1C` registered a minimal inhibitory concentration (MIC) in test [1] of 32 µg/mL (≈ 35.2 µM).
In test [1], `CC[C@H](C)C(=O)N[C@H](Cc1ccccc1)C(=O)N[C@@H]1C(=O)N[C@H](CC(C)C)C(=O)N[C@H](Cc2ccccc2)C(=O)N[C@H](CC(C)C)C(=O)N[C@@H]([C@@H](C)O)C(=O)N[C@@H](CO)C(=O)O[C@@H]1C` showed a minimal inhibitory concentration (MIC) of 64 µg/mL (≈ 71.6 µM).
